This note sets out measurements from patent publication US20140249135A1, “PIM KINASE INHIBITORS AND METHODS OF THEIR USE” (NOVARTIS AG, priority 2007, published 2014).

Molecules are shown by their SMILES. Some results are limits rather than exact numbers.

One assay deals with Pim1 kinase (Homo sapiens, UniProt P11309). In words: Pim1 ATP depletion assay.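 Further: Luciferase-luciferin luminescence readout of residual ATP after PIM1 transfers phosphate to a peptide substrate, 40 µM ATP added, reaction run to roughly half ATP consumption.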 The conditions noted are these: Pim1 ATP depletion assay; read-out: IC50 (μM) PIM1. It is filed as biochemical.
A further assay deals with Pim2 kinase (Homo sapiens, UniProt Q9P1W9). Briefly: Pim2 ATP depletion assay.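 Further: Luciferase-based luminescent readout of ATP remaining after PIM2 phosphorylates a BAD peptide, final 5 nM enzyme, 4 µM ATP, 10 µM peptide, 2.5% DMSO, run to roughly half ATP consumption.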 It is filed as biochemical. To be noted: read-out: IC50 (μM) PIM2.
The target in another assay is Pim3 kinase (Homo sapiens, UniProt Q86V86). Briefly: Pim3 ATP depletion assay. Format: biochemical. To be noted: read-out: IC50 (μM) PIM3.
For assay [1], the target named is T1, human full length PKCE enzyme (Homo sapiens, UniProt Q02156).
T1 construct: human full length PKCE enzyme purchased from InVitrogen; purchased InVitrogen
T1 sequence (Q02156 1-737): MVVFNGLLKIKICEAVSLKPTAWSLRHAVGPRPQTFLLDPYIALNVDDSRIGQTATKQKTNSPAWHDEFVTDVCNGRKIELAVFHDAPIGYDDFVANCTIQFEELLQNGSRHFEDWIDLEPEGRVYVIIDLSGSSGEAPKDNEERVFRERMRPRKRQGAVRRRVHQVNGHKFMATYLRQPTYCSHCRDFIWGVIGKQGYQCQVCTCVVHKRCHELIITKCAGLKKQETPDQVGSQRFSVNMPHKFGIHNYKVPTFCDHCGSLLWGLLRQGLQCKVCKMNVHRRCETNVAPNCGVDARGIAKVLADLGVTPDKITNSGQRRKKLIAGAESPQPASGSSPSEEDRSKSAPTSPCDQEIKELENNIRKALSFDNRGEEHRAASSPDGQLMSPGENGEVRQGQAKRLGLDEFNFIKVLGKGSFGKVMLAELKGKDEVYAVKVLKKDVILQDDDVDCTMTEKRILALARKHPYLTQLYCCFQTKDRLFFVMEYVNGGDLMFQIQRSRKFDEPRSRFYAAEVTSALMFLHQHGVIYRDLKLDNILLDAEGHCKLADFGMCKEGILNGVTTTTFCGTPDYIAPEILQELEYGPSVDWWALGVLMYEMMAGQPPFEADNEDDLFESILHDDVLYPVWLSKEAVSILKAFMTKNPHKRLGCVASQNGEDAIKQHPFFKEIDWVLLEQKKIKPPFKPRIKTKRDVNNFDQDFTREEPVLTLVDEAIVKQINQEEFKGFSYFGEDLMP
In words: In vitro PKCE assay. It is filed as biochemical. To be noted: 10 nM enzyme, 40 uM peptide substrate, 20 uM ATP, KinaseGlo Plus readout; read-out: PKCε IC50. A general note: In Kinase-Glo more light means more ATP remaining.

The target of the next assay is KDR kinase (Homo sapiens, UniProt P35968). In words: KDR AlphaScreen assay. To be noted: KDR IC50 (μM). In general terms: Bead proximity is the source of the signal in Alpha formats.
Sequence of KDR kinase (P35968 20-1356): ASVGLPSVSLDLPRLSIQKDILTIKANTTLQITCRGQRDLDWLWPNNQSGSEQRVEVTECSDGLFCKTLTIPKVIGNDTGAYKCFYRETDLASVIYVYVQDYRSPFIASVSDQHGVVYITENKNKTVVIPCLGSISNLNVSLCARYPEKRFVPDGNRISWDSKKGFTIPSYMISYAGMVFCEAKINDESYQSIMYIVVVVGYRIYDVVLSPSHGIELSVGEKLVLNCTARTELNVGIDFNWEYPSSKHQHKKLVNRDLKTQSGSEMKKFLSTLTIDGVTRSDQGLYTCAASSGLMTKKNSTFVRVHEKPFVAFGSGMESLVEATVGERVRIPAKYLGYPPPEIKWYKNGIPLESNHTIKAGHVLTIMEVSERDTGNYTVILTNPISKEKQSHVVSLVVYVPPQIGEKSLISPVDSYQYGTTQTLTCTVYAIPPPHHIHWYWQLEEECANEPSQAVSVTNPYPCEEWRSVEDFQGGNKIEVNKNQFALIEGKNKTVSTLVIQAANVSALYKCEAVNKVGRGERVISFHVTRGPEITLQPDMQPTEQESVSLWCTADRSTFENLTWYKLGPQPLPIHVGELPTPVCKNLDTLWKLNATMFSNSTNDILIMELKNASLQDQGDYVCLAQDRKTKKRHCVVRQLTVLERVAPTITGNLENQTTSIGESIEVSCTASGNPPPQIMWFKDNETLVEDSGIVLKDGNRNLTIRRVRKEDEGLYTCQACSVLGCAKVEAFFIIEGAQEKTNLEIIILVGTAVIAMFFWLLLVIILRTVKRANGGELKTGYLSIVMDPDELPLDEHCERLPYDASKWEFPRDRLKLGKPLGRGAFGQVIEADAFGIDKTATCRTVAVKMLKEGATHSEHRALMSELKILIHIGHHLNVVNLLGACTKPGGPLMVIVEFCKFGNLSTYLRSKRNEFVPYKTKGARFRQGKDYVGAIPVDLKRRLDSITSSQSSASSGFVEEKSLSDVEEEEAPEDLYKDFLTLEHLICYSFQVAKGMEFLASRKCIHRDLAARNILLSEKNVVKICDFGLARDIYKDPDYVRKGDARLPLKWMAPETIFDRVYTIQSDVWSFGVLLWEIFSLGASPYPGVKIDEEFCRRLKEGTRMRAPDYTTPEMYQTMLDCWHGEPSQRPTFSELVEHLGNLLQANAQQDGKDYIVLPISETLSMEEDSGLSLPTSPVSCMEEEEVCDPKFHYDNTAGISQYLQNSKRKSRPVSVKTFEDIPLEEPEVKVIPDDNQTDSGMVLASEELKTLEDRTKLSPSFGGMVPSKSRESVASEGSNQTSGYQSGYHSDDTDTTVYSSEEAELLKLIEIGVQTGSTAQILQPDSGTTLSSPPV

Sequence of Pim2 kinase (Q9P1W9 whole entry): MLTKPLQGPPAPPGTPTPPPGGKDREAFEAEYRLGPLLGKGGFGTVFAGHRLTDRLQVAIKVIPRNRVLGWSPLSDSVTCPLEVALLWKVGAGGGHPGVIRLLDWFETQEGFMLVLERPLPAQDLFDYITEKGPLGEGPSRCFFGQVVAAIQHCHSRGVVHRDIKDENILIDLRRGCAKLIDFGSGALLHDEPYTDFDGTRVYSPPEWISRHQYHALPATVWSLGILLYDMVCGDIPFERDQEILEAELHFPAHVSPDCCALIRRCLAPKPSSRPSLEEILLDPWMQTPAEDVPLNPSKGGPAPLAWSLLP
Sequence of Pim1 kinase (P11309 whole entry): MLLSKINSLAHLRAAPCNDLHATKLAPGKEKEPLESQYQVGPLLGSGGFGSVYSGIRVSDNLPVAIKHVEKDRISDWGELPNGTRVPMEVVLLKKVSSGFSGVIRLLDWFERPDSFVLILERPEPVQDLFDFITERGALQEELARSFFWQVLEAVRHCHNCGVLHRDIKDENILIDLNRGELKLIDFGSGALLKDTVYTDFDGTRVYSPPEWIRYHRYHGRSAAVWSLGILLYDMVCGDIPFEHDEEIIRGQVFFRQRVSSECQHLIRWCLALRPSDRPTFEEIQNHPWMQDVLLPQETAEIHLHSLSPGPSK

Consider `Nc1nccnc1C(=O)Nc1cc(C(F)(F)F)ccc1N1CCNCC1` [Example 224, 3-amino-N-[2-piperazin-1-yl-5-(trifluoromethyl)phenyl]pyrazine-2-carboxamide], for which the IC50 at Pim1 kinase was below 1 µM; at Pim2 kinase it was above 25 µM; on Pim3 kinase, 1 to 10 µM; in assay [1], 1 to 10 µM; at KDR kinase it was above 25 µM.
Regarding `Nc1nccnc1C(=O)Nc1cc(C(F)(F)F)ccc1N1CCC(N)CC1` [Example 225, 3-amino-N-[2-(4-aminopiperidin-1-yl)-5-(trifluoromethyl)phenyl]-pyrazine-2-carboxamide], the IC50 at Pim1 kinase was below 1 µM; on Pim2 kinase it was 10 to 25 µM; at Pim3 kinase, below 1 µM; in assay [1], 1 to 10 µM; at KDR kinase it was above 25 µM.
Consider `Nc1nccnc1C(=O)Nc1cc(C(F)(F)F)ccc1N1CCCC(N)C1` (stereo not shown) [Example 226, 3-amino-N-[2-(3-aminopiperidin-1-yl)-5-(trifluoromethyl)phenyl]-pyrazine-2-carboxamide], for which the half-inhibitory concentration (IC50) on Pim1 kinase was below 1 µM; at Pim2 kinase, 1 to 10 µM; at Pim3 kinase, below 1 µM; in assay [1], 1 to 10 µM; against KDR kinase it was above 25 µM.
Turning to `Cc1ccc(NC(=O)c2nccnc2N)c(N2CCNCC2)c1` [Example 227, 3-amino-N-(4-methyl-2-piperazin-1-ylphenyl)pyrazine-2-carboxamide], the IC50 is 1 to 10 µM on Pim1 kinase; above 25 µM on Pim2 kinase; 1 to 10 µM at Pim3 kinase; 1 to 10 µM in assay [1]; above 25 µM against KDR kinase.
As to `Cc1ccc(NC(=O)c2nccnc2N)c(N2CCCC(N)C2)c1` (stereo not shown) [Example 229, 3-amino-N-[2-(3-aminopiperidin-1-yl)-4-methylphenyl]pyrazine-2-carboxamide], the half-inhibitory concentration (IC50) on Pim1 kinase was below 1 µM; on Pim2 kinase, 1 to 10 µM; on Pim3 kinase, below 1 µM; in assay [1] it was 1 to 10 µM; against KDR kinase it was above 25 µM.
As for `N#Cc1ccc(N2CCCC(N)C2)c(NC(=O)c2nccnc2N)c1` (stereo not shown) [Example 230, 3-amino-N-[2-(3-aminopiperidin-1-yl)-5-cyanophenyl]pyrazine-2-carboxamide], the IC50 is below 1 µM at Pim1 kinase; below 1 µM at Pim2 kinase; below 1 µM on Pim3 kinase; below 1 µM in assay [1]; above 25 µM against KDR kinase.
On to `Nc1nccnc1C(=O)Nc1cc(C(=O)c2ccccc2)ccc1N1CCCC(N)C1` (stereo not shown) [Example 231, 3-amino-pyrazine-2-carboxylic acid [2-(3-amino-piperidin-1-yl)-5-benzoyl-phenyl]-amide], for which the 50% inhibitory concentration (IC50) at Pim1 kinase is 1 to 10 µM; on Pim2 kinase, above 25 µM; at Pim3 kinase, 1 to 10 µM; in assay [1] it was 10 to 25 µM; against KDR kinase it was 10 to 25 µM.
As for `Nc1nccnc1C(=O)Nc1cc(C(=O)c2ccccc2)ccc1N1CCNCC1` [Example 232, 3-amino-pyrazine-2-carboxylic acid (5-benzoyl-2-piperazin-1-yl-phenyl)-amide], the IC50 at Pim1 kinase was 10 to 25 µM; on Pim2 kinase, above 25 µM; on Pim3 kinase, 10 to 25 µM; in assay [1] it was 10 to 25 µM; at KDR kinase it was 10 to 25 µM.
Regarding `Nc1nccnc1C(=O)Nc1cc(C(=O)c2ccccc2)ccc1N1CCC(N)CC1` [Example 233, 3-amino-pyrazine-2-carboxylic acid [2-(4-amino-piperidin-1-yl)-5-benzoyl-phenyl]-amide], the half-maximal inhibitory concentration (IC50) at Pim1 kinase was 1 to 10 µM; on Pim2 kinase it was above 25 µM; on Pim3 kinase, 1 to 10 µM; in assay [1] it was 1 to 10 µM; at KDR kinase, 1 to 10 µM.
On to `NCC1CCCN(c2cnc(=O)[nH]c2NC(=O)c2nc(Cl)c(N)nc2N)C1` (stereo not shown) [Example 236, 3,5-diamino-N-{5-[3-(amino-methyl)piperidin-1-yl]-2-oxo-2,3-dihydropyrimidin-4-yl}-6-chloropyrazine-2-carboxamide], for which the 50% inhibitory concentration (IC50) on Pim1 kinase is below 1 µM; at Pim2 kinase it was below 1 µM; at Pim3 kinase, below 1 µM; in assay [1], above 25 µM; against KDR kinase it was 10 to 25 µM.
Turning to `NCCC(=O)N1CCN(c2cnc(=O)[nH]c2NC(=O)c2nccnc2N)CC1` [Example 237, 3-amino-N-{5-[4-(3-amino-propanoyl)piperazin-1-yl]-2-oxo-2,3-dihydropyrimidin-4-yl}-pyrazine-2-carboxamide], the 50% inhibitory concentration (IC50) at Pim1 kinase was below 1 µM; on Pim2 kinase it was below 1 µM; on Pim3 kinase it was below 1 µM; in assay [1], 1 to 10 µM; against KDR kinase, below 1 µM.
As to `NCCC(=O)N1CCN(c2cnc(=O)[nH]c2NC(=O)c2nc(Cl)c(N)nc2N)CC1` [Example 238, 3,5-diamino-6-chloro-pyrazine-2-carboxylic acid {5-[4-(3-amino-propionyl)-piperazin-1-yl]-2-oxo-2,3-dihydro-pyrimidin-4-yl}-amide], the half-inhibitory concentration (IC50) was below 1 µM on Pim1 kinase; below 1 µM on Pim2 kinase; below 1 µM at Pim3 kinase; above 25 µM in assay [1]; below 1 µM against KDR kinase.
For `Nc1nccnc1C(=O)Nc1cc(C(=O)C2CC2)ccc1N1CCCC(N)C1` (stereo not shown) [Example 243, 3-amino-pyrazine-2-carboxylic acid [2-(3-amino-piperidin-1-yl)-5-cyclopropanecarbonyl-phenyl]-amide], the concentration for half-maximal inhibition (IC50) on Pim1 kinase is 1 to 10 µM; on Pim2 kinase, 10 to 25 µM; at Pim3 kinase it was 1 to 10 µM; in assay [1] it was 1 to 10 µM; at KDR kinase, above 25 µM.
With `Nc1nccnc1C(=O)Nc1cc(C(=O)C2CC2)ccc1N1CCC(N)CC1` [Example 244, 3-amino-pyrazine-2-carboxylic acid [2-(4-amino-piperidin-1-yl)-5-cyclopropanecarbonyl-phenyl]-amide], the half-inhibitory concentration (IC50) on Pim1 kinase was in the range of 1 to 10 µM; at Pim2 kinase it was 10 to 25 µM; at Pim3 kinase it was 1 to 10 µM; in assay [1] it was 1 to 10 µM; on KDR kinase it was 10 to 25 µM.
Take `CC(=O)NC1CCCN(c2ccncc2NC(=O)c2nc(Br)cnc2N)C1` (stereo not shown) [Example 304, N-(4-(3-acetamidopiperidin-1-yl)pyridin-3-yl)-3-amino-6-bromopyrazine-2-carboxamide]: the IC50 was below 1 µM on Pim1 kinase; above 25 µM at Pim2 kinase; 1 to 10 µM on Pim3 kinase; 1 to 10 µM in assay [1]; below 1 µM against KDR kinase.
Consider `COc1cncc(-c2cnc(N)c(C(=O)Nc3cnccc3N3CCNCC3)n2)n1` [Example 360, 5-amino-6′-methoxy-[2,2′]bipyrazinyl-6-carboxylic acid (4-piperazin-1-yl-pyridin-3-yl)-amide], for which the IC50 on Pim1 kinase is 1 to 10 µM; on Pim2 kinase, above 25 µM; on Pim3 kinase it was 1 to 10 µM; in assay [1], 1 to 10 µM; on KDR kinase, below 1 µM.
On to `NC(=O)c1cccc(-c2cnc(N)c(C(=O)Nc3cnccc3N3CCNCC3)n2)c1` [Example 361, 3-amino-6-(3-carbamoyl-phenyl)-pyrazine-2-carboxylic acid (4-piperazin-1-yl-pyridin-3-yl)-amide], for which the IC50 (on Pim1 kinase; at Pim2 kinase; on Pim3 kinase; in assay [1]; against KDR kinase) was below 1 µM throughout.
On to `COc1cncc(-c2cnc(N)c(C(=O)Nc3cnccc3N3CCC(N)CC3)n2)n1` [Example 366, 5-amino-6′-methoxy-[2,2′]bi-pyrazinyl-6-carboxylic acid (4-amino-3,4,5,6-tetrahydro-2H-[1,4′]bipyridinyl-3′-yl)-amide], for which the concentration for half-maximal inhibition (IC50) at Pim1 kinase was below 1 µM; on Pim2 kinase, 1 to 10 µM; at Pim3 kinase, below 1 µM; in assay [1] it was below 1 µM; on KDR kinase, below 1 µM.
As to `NC(=O)c1cccc(-c2cnc(N)c(C(=O)Nc3cnccc3N3CCCC(N)C3)n2)c1` (stereo not shown) [Example 369, 3-amino-6-(3-carbamoyl-phenyl)-pyrazine-2-carboxylic acid (3-amino-3,4,5,6-tetra-hydro-2H-[1,4′]bipyridinyl-3′-yl)-amide], the concentration for half-maximal inhibition (IC50) (on Pim1 kinase; on Pim2 kinase; on Pim3 kinase; in assay [1]; at KDR kinase) was below 1 µM each time.
With `Nc1ncc(-c2ccccc2F)nc1C(=O)Nc1ccccc1N1CCC(N)CC1` [Example 377, 3-amino-6-(2-fluoro-phenyl)-pyrazine-2-carboxylic acid [2-(4-amino-piperidin-1-yl)-phenyl]-amide], the concentration for half-maximal inhibition (IC50) at Pim1 kinase was below 1 µM; at Pim2 kinase, below 1 µM; at Pim3 kinase, below 1 µM; in assay [1] it was below 1 µM; on KDR kinase it was 1 to 10 µM.

Usually IC50 stands for the concentration needed to halve the response being measured.
